Biological target: TAR RNA
Assay: In vitro binding of resin-bound compounds to TAR RNA (OD260 of unbound RNA)
Set-up: species or system HIV
Settings: in vitro assay; compounds of formula I on TentaGel beads incubated with TAR RNA overnight at 4° C. in TK buffer; read-out: Kd (nM), binding constants
Protocol: Binding of compounds of formula I and V to TAR RNA was measured by evaluating their inhibition of TAR-TAT complex formation in the presence of increasing levels of the compound to be tested. The compounds of formula I were tested in an in vitro assay; the compounds of formula V were tested in an in vivo assay.
The TAR RNA used corresponds to the minimal sequence required for TAT responsiveness in vivo. This 29-residue oligonucleotide has the sequence: 5′-[…]-3′ (SEQ ID NO.: 1). TAR RNA was prepared by in vitro transcription. A “top strand” single-stranded DNA oligomer having the sequence 5′-TAATACGACTCACTATAG-3′ (SEQ ID NO.: 2) was annealed to a “bottom strand” single-stranded DNA template having the following sequence: 3′-[…]-5′ (SEQ ID NO.: 3), thereby generating a double-stranded region corresponding to a promoter sequence recognized by T7 RNA polymerase. Transcription was carried out in transcription buffer (40 mM Tris-HCl, pH 8.1, 1 mM spermidine, 0.01% Triton®X-100, 5 mM dithiothreitol, 4 mM each of ATP, GTP, CTP, and UTP at 37° C. for 4 to 5 hours. Reactions were performed in a volume of 0.02 ml containing 8 pmole of template (top strand annealed to bottom strand) and 40 to 60 units of T7 RNA polymerase. Transcription was terminated by adding an equal volume of loading buffer (9M urea, 1 mmol EDTA, 0.1M bromophenol blue in 1XTBE buffer; TBE is 45 mmol trisborate at pH 8). Product RNA was purified by electrophoresis through a denaturing 20% polyacrylamide gel containing 8M urea. RNA was extracted from the gel, precipitated, dissolved in dithylpyrocarbonate-treated water, and stored at −20° C. until used.
In vitro assay conditions: Compounds AA-DU were synthesized on TentaGel S—NH2 (4.6 mmole). All Fmoc-amino acids were purchased from Bachem (Torrance, Calif.). 1-hydroxybenzotriazole (HOBT) and diisopropylcarbodiimide (DIPCDI) were obtained from Aldrich Chemical Co., Milwalkee, Wis. Piperidine and trifluoroacetic acid were purchased from Applied Biosystems Division, Perkin-Elmer. Compounds AA-DU were synthesized manually according to standard solid-phase peptide synthesis protocols. Coupling efficiencies of residues at each step were monitored by Kaiser test. Deprotection of trimer peptides was carried out in 10% water in trifluoroacetic acid (1 mL) for 16 hours at room temperature. After filtration of solvents, the resin was washed with water (1 mL×4), DMF (1 mL×4), dichloromethane (1 mL×4), and dried under reduced pressure. The compounds attached to the resin (10 beads) were placed in an Eppendorf tube and washed with TK buffer ([…]). The beads were suspended in TK buffer ([…]) and incubated with TAR RNA ([…]) overnight at 4° C. The suspension was centrifuged and the supernatant containing unbound RNA was transferred to a cuvette for OD260 measurements. The UV absorbance was measured by a Shimadzu UV-1601 spectrometer. Equilibrium concentrations of RNA were determined from these measurements. Given that the initial concentrations of ligand and RNA are known, and assuming simple bimolecular receptor/substrate binding, dissociation constant (KD) was calculated from straightforward equations.

Compound	Kd [nM]
NCCCC[C@@H](COC(N)=O)NC(=O)OC[C@@H](CCCCN)NC(=O)[C@H](N)CCCCN (stereo in doubt) [Compound CD, Carbamic acid 6-amino-2-[6-amino-2-(2,6-diamino-hexanoylamino)-hexyloxycarbonylamino]-hexyl ester]	567
NCCCC[C@H](N)COC(=O)N[C@@H](CCCCN)COC(=O)N[C@@H](CCCCN)COC(N)=O (stereo in doubt) [Compound CJ, Carbamic acid 6-amino-2-[6-amino-2-(2,6-diamino-hexyloxycarbonylamino)-hexyloxycarbonylamino]-hexyl ester]	1260
NCCCC[C@H](N)COC(=O)N[C@H](CCCCN)COC(=O)N[C@H](CCCCN)COC(N)=O [Compound AA, Carbamic acid 6-amino-2-[6-amino-2-(2,6-diamino-hexyloxycarbonylamino)-hexyloxycarbonylamino]-hexyl ester]	639
NCCCC[C@@H](N)COC(=O)N[C@H](CCCCN)COC(=O)N[C@H](CCCCN)COC(N)=O [Compound AB, Carbamic acid 6-amino-2-[6-amino-2-(2,6-diamino-hexyloxycarbonylamino)-hexyloxycarbonylamino]-hexyl ester]	523
NCCCC[C@H](COC(N)=O)NC(=O)OC[C@@H](CCCCN)NC(=O)[C@H](N)CCCCN [Compound AD, Carbamic acid 6-amino-2-[6-amino-2-(2,6-diamino-hexanoylamino)-hexyloxycarbonylamino]-hexyl ester]	2080
NCCCCCNCC(=O)N[C@H](CCCCN)COC(=O)N[C@H](CCCCN)COC(N)=O [Compound AE, Carbamic acid 6-amino-2-{6-amino-2-[2-(5-amino-pentylamino)-acetylamino]-hexyloxycarbonylamino}-hexyl ester]	1110

Molecules with a lower Kd, results first:

Kd [nM]	Compound
183	NCCCC[C@H](COC(N)=O)NC(=O)OC[C@H](CCCCN)NC(=O)[C@H](N)CCCCN (stereo in doubt) [Compound AM, Carbamic acid 6-amino-2-[6-amino-2-(2,6-diamino-hexanoylamino)-hexyloxycarbonylamino]-hexyl ester]
147	NCCCC[C@H](N)COC(=O)N(CCCCN)CC(=O)N[C@H](CCCCN)COC(N)=O (stereo in doubt) [Compound AS, Carbamic acid 6-amino-2-{2-[(4-amino-butyl)-(2,6-diamino-hexyloxycarbonyl)-amino]-acetylamino}-hexyl ester]
183	NCCCCCN(CC(=O)N[C@H](CCCCN)COC(N)=O)C(=O)OC[C@H](N)CCCCN (stereo in doubt) [Compound BC, Carbamic acid 6-amino-2-{2-[(5-amino-pentyl)-(2,6-diamino-hexyloxycarbonyl)-amino]-acetylamino}-hexyl ester]
202	NCCCC[C@H](N)COC(=O)N[C@@H](CCCCN)C(=O)N[C@H](CCCCN)COC(N)=O (stereo in doubt) [Compound BT, Carbamic acid 6-amino-2-[6-amino-2-(2,6-diamino-hexyloxycarbonylamino)-hexanoylamino]-hexyl ester]
403	NCCCC[C@H](COC(N)=O)NC(=O)[C@H](CCCCN)NC(=O)[C@@H](N)CCCCN (stereo in doubt) [Compound BV, Carbamic acid 6-amino-2-[6-amino-2-(2,6-diamino-hexanoylamino)-hexanoylamino]-hexyl ester]
130	NCCCC[C@@H](COC(N)=O)NC(=O)OC[C@H](CCCCN)NC(=O)[C@@H](N)CCCCN (stereo in doubt) [Compound CL, Carbamic acid 6-amino-2-[6-amino-2-(2,6-diamino-hexanoylamino)-hexyloxycarbonylamino]-hexyl ester]
215	NCCCC[C@H](COC(N)=O)NC(=O)OC[C@@H](CCCCN)NC(=O)[C@@H](N)CCCCN [Compound AC, Carbamic acid 6-amino-2-[6-amino-2-(2,6-diamino-hexanoylamino)-hexyloxycarbonylamino]-hexyl ester]

Source: patent publication US6583309B1 (University of Medicine and Dentistry of New Jersey, priority 1999, dated 2003)
